Experimental findings from patent US20140335135A1, “PHARMACEUTICAL COMPOSITION” (FERRING BV, priority 2011, published 2014) are described below.

Data set [1] is described as follows: Solubility of triptorelin in hexyl substituted polylactide polymer. The data set is classed as physicochemical. The text has this:
Triptorelin is not soluble in the hexyl substituted polylactide polymer (which is a viscous liquid) because of its relatively high hydrophilicity. The lyophilized triptorelin was therefore micronized, by cryomilling or spray-drying, to ensure small particle size for incorporation into the polymer. Preferably the triptorelin (or salt/derivative thereof) is micronized/mixed with the polylactide at a temperature below the glass transition temperature of the polylactide, more preferably at temperature of around −196° C., so as to avoid melting and resulting increased viscosity of the polylactide.

Data set [2] is described as follows: Particle size distribution by optical microscopy (diameter of the coextensive circle). The data set is classed as physicochemical. How it is done: Two different methods were used to incorporate triptorelin into the hexyl substituted polylactide polymer. The first was a “separate milling and mixing” method in which the triptorelin was micronized using an SPEX 6700 Freezer/mill at −196° C. in liquid nitrogen (milling for 5 min), the resulting micronized powder being mixed with the hexyl substituted polylactide polymer by kneading in plastic bags until a homogeneous formulation was obtained (as verified by optical microscopy).
In the second method, lyophilised triptorelin (10% by weight of polymer or 5% by weight polymer or 2.5% by weight polymer) was incorporated into the polymer by a combined direct “cryo-milling-mixing” technique. The triptorelin was micronized together with the polymer in a cryo-mill (SPEX 6700 Freezer/mill) at −196 C for five minutes in liquid nitrogen. The particle size distribution in the formulations was analysed using an Optishot-2 microscope (Nikon, Tokyo, Japan) and ImageJ software.
The kneading provided a homogenous suspension (FIG. 1a) although the average diameter increased to 9.0 μm because some larger particles of more than 30 μm were formed due to agglomeration.

For the molecule `CC(C)C[C@H](NC(=O)[C@@H](Cc1c[nH]c2ccccc12)NC(=O)[C@H](Cc1ccc(O)cc1)NC(=O)[C@H](CO)NC(=O)[C@H](Cc1c[nH]c2ccccc12)NC(=O)[C@H](Cc1c[nH]cn1)NC(=O)[C@@H]1CCC(=O)N1)C(=O)N[C@@H](CCCNC(=N)N)C(=O)N1CCC[C@H]1C(=O)NCC(N)=O` [Triptorelin, L-Pyroglutamyl-L-histidyl-Ltryptophyl-L-seryl-L-tyrosyl-D-tryptophyl-L-eucy-L-arginy-L-prolyl-glycinamide], in data set [1], the “solubility in the hexyl substituted polylactide polymer” value is on record as “not soluble”. Further, the “average diameter for the coextensive circle” value in data set [2] worked out at 5.6 μm.
